Measurements reported in PubChem BioAssay AID192 (DTP/NCI, 2004).
Where “and” joins values, the source holds several entries; their conditions need not be identical. Identical values can stand only once. Inconclusive results and toxic doses are left out.

Test system: BDF1 mice, B16 melanoma ip, median survival T/C
Assay: NCI In Vivo Anticancer Drug Screen. Data for tumor model B16 Melanoma (intraperitoneal) in B6D2F1 (BDF1) mice
Conditions: endpoint: median survival time, higher = longer survival
Outline: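 Vehicle-treated animals serve as the reference (C); treated animals (T) are scored for survival or tumor size after tumor transplantation.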

[1] = dose: 25.0 mg/kg/injection, schedule: Q01DX009 (ip), vehicle: saline
[2] = dose: 50.0 mg/kg/injection, schedule: Q01DX009 (ip), vehicle: saline
[3] = dose: 100.0 mg/kg/injection, schedule: Q01DX009 (ip), vehicle: saline
[4] = dose: 6.25 mg/kg/injection, schedule: Q01DX009 (ip), vehicle: saline
[5] = dose: 25.0 mg/kg/injection, schedule: Q01DX009 (ip), vehicle: Klucel (hydroxypropylcellulose) (HPC)
[6] = dose: 50.0 mg/kg/injection, schedule: Q01DX009 (ip), vehicle: Klucel (hydroxypropylcellulose) (HPC)
[7] = dose: 50.0 mg/kg/injection, schedule: Q01DX009 (ip), vehicle: saline with Tween-80
[8] = dose: 100.0 mg/kg/injection, schedule: Q01DX009 (ip), vehicle: saline with Tween-80
[9] = dose: 12.5 mg/kg/injection, schedule: Q01DX009 (ip), vehicle: saline
[10] = dose: 100.0 mg/kg/injection, schedule: Q01DX009 (ip), vehicle: Klucel (hydroxypropylcellulose) (HPC)
[11] = dose: 200.0 mg/kg/injection, schedule: Q01DX009 (ip), vehicle: saline with Tween-80
[12] = dose: 400.0 mg/kg/injection, schedule: Q01DX009 (ip), vehicle: saline with Tween-80

CC[C@@]1(O)C(=O)OCc2c1cc1n(c2=O)Cc2cc3c(OC)cccc3nc2-1
T/C (dose: 0.39 mg/kg/injection, schedule: Q01DX009 (ip), vehicle: other): 150 % of control | T/C (dose: 0.79 mg/kg/injection, schedule: Q01DX009 (ip), vehicle: other): 161 % of control | T/C (dose: 2.0 mg/kg/injection, schedule: Q01DX009 (ip), vehicle: Klucel (hydroxypropylcellulose) (HPC)): 175 % of control | T/C (dose: 4.0 mg/kg/injection, schedule: Q01DX009 (ip), vehicle: carboxymethylcellulose (CMC)): 172 % of control

COC(=O)/C=C/c1ccc([N+](=O)[O-])cc1
T/C (dose: 100.0 mg/kg/injection, schedule: Q04DX003 (ip), vehicle: saline with Tween-80): 90 % of control | T/C (dose: 200.0 mg/kg/injection, schedule: Q04DX003 (ip), vehicle: saline with Tween-80): 93 % of control | T/C (dose: 400.0 mg/kg/injection, schedule: Q04DX003 (ip), vehicle: saline with Tween-80): 86 % of control

CCO/C=C1\SC(=S)N(c2ccco2)C1=O
T/C [1]: 111 % of control | T/C (dose: 25.0 mg/kg/injection, schedule: Q04DX003 (ip), vehicle: saline): 116 % of control | T/C [2]: 98 % of control | T/C (dose: 50.0 mg/kg/injection, schedule: Q04DX003 (ip), vehicle: saline): 105 % of control | T/C [3]: 117 % of control | T/C (dose: 100.0 mg/kg/injection, schedule: Q04DX003 (ip), vehicle: saline): 116 % of control | T/C (dose: 200.0 mg/kg/injection, schedule: Q04DX003 (ip), vehicle: saline): 102 % of control

NC(CC(=O)CCl)C(=O)O (configuration not stated)
T/C (dose: 3.13 mg/kg/injection, schedule: Q01DX009 (ip), vehicle: saline): 109 % of control | T/C [4]: 118 % of control

C/C(=N/NC(=O)c1ccccc1)c1ccccc1O
T/C (dose: 100.0 mg/kg/injection, schedule: Q04DX003 (ip), vehicle: gum acacia): 93 % of control | T/C (dose: 200.0 mg/kg/injection, schedule: Q04DX003 (ip), vehicle: gum acacia): 95 % of control | T/C (dose: 400.0 mg/kg/injection, schedule: Q04DX003 (ip), vehicle: gum acacia): 93 % of control

Cc1cc2nc(CBr)c(CBr)nc2cc1C
T/C (dose: 0.1 mg/kg/injection, schedule: Q01DX009 (ip), vehicle: saline with Tween-80): 86 % of control | T/C (dose: 0.2 mg/kg/injection, schedule: Q01DX009 (ip), vehicle: saline with Tween-80): 86 % of control | T/C (dose: 0.4 mg/kg/injection, schedule: Q01DX009 (ip), vehicle: saline with Tween-80): 92 % of control | T/C (dose: 0.75 mg/kg/injection, schedule: Q01DX009 (ip), vehicle: saline with Tween-80): 107 % of control | T/C (dose: 0.8 mg/kg/injection, schedule: Q01DX009 (ip), vehicle: saline with Tween-80): 94 % of control | T/C (dose: 1.5 mg/kg/injection, schedule: Q01DX009 (ip), vehicle: saline with Tween-80): 97 % of control | T/C (dose: 3.0 mg/kg/injection, schedule: Q01DX009 (ip), vehicle: saline with Tween-80): 97 % of control | T/C (dose: 6.0 mg/kg/injection, schedule: Q01DX009 (ip), vehicle: saline with Tween-80): 89 % of control

O=C(Oc1ccc(OC(=O)c2ccccc2)c2c1C(=O)C(CBr)=C(CBr)C2=O)c1ccccc1
T/C (dose: 6.25 mg/kg/injection, schedule: Q01DX009 (ip), vehicle: Klucel (hydroxypropylcellulose) (HPC)): 97 % of control | T/C (dose: 12.5 mg/kg/injection, schedule: Q01DX009 (ip), vehicle: Klucel (hydroxypropylcellulose) (HPC)): 100 % of control | T/C [5]: 97 % of control | T/C [6]: 101 % of control

COC(=O)N1C=Cc2ccccc2C1C#N (configuration not stated)
T/C [7]: 95 % of control | T/C [8]: 87 % of control

COc1ccc2c(c1)CN(S(=O)(=O)c1ccc(C)cc1)C=CC2=O
T/C (dose: 100.0 mg/kg/injection, schedule: Q04DX003 (ip), vehicle: Klucel (hydroxypropylcellulose) (HPC)): 108 % of control | T/C (dose: 200.0 mg/kg/injection, schedule: Q04DX003 (ip), vehicle: Klucel (hydroxypropylcellulose) (HPC)): 103 % of control | T/C (dose: 400.0 mg/kg/injection, schedule: Q04DX003 (ip), vehicle: Klucel (hydroxypropylcellulose) (HPC)): 97 % of control

C[N+](C)(C)c1ncnc2nc[nH]c12
T/C [9]: 92 % of control | T/C [1]: 89 % of control | T/C [2]: 93 % of control | T/C [3]: 103 % of control | T/C (dose: 200.0 mg/kg/injection, schedule: Q01DX009 (ip), vehicle: saline): 87 % of control

CCO/C=C1\SC(=S)N(c2cccc(O)c2)C1=O
T/C [5]: 102 % of control | T/C [6]: 102 % of control | T/C [10]: 101 % of control

O=C1C=CC(=O)c2c(Cl)ccc(O)c21
T/C (dose: 0.63 mg/kg/injection, schedule: Q01DX009 (ip), vehicle: Klucel (hydroxypropylcellulose) (HPC)): 90 % of control | T/C (dose: 1.25 mg/kg/injection, schedule: Q01DX009 (ip), vehicle: Klucel (hydroxypropylcellulose) (HPC)): 95 % of control

CC12C=CC(=O)C=C1CCC1C2C(O)CC2(C)C1CCC2(O)C(=O)COC(=O)CCCc1ccc(N(CCCl)CCCl)cc1 (configuration not stated)
T/C (dose: 15.0 mg/kg/injection, schedule: Q01DX011 (ip), vehicle: saline): 119 % of control

CC1=[N+](C)C(C)(C)CC(C)O1 (configuration not stated)
T/C (dose: 3.12 mg/kg/injection, schedule: Q01DX009 (ip), vehicle: saline): 91 % of control | T/C [4]: 104 % of control | T/C [9]: 104 % of control | T/C [1]: 91 % of control

O=C(N=C1C=CC(=NC(=O)OCc2ccccc2)C=C1)OCc1ccccc1
T/C (dose: 75.0 mg/kg/injection, schedule: Q01DX009 (ip), vehicle: Klucel (hydroxypropylcellulose) (HPC)): 98 % of control | T/C (dose: 150.0 mg/kg/injection, schedule: Q01DX009 (ip), vehicle: Klucel (hydroxypropylcellulose) (HPC)): 92 % of control | T/C (dose: 300.0 mg/kg/injection, schedule: Q01DX009 (ip), vehicle: Klucel (hydroxypropylcellulose) (HPC)): 91 % of control

O=C1C(Br)C2CCC1C2C(=O)O (configuration not stated)
T/C [8]: 111 % of control | T/C [11]: 94 % of control | T/C [12]: 89 % of control

COC(=O)NC1C(C)OC(OC2C/C=C(/C)C3C=CC4C(OC5CC(OC6CCC(OC7CC(O)C(OC8CCC(O)C(C)O8)C(C)O7)C(C)O6)C(OC(C)=O)C(C)O5)C(C)CC(C)C4C3(C)/C(O)=C3/C(=O)OC4(CC(C=O)=CC(O)C4/C=C\2C)C3=O)CC1(C)[N+](=O)[O-] (configuration not stated)
T/C (dose: 2.5 mg/kg/injection, schedule: Q01DX009 (ip), vehicle: water): 159 % of control | T/C (dose: 5.0 mg/kg/injection, schedule: Q01DX009 (ip), vehicle: water): 165 % of control | T/C (dose: 10.0 mg/kg/injection, schedule: Q01DX009 (ip), vehicle: water): 157 % of control

S=C(NNc1ccccc1)Nc1ccccc1
T/C [5]: 97 % of control | T/C [6]: 106 % of control

COc1ccc(C2CCc3cc4c(cc3/C2=N/OC(C)=O)OCO4)cc1OC (configuration not stated)
T/C [10]: 109 % of control | T/C (dose: 200.0 mg/kg/injection, schedule: Q01DX009 (ip), vehicle: Klucel (hydroxypropylcellulose) (HPC)): 110 % of control | T/C (dose: 400.0 mg/kg/injection, schedule: Q01DX009 (ip), vehicle: Klucel (hydroxypropylcellulose) (HPC)): 105 % of control

COc1ccccc1NC(=O)Nc1cc(C)cc(C)n1
T/C [8]: 94 % of control | T/C [11]: 94 % of control | T/C [12]: 89 % of control

COc1ccc(N=NNc2ccc(OC)cc2)cc1
T/C (dose: 5.0 mg/kg/injection, schedule: Q01DX009 (ip), vehicle: saline with Tween-80): 106 % of control | T/C (dose: 6.25 mg/kg/injection, schedule: Q01DX009 (ip), vehicle: saline with Tween-80): 90 % of control and 94 % of control | T/C (dose: 6.25 mg/kg/injection, schedule: Q04DX003 (ip), vehicle: saline with Tween-80): 97 % of control and 105 % of control | T/C (dose: 10.0 mg/kg/injection, schedule: Q01DX009 (ip), vehicle: saline with Tween-80): 109 % of control | T/C (dose: 12.5 mg/kg/injection, schedule: Q01DX009 (ip), vehicle: saline with Tween-80): 86 % of control and 94 % of control | T/C (dose: 12.5 mg/kg/injection, schedule: Q04DX003 (ip), vehicle: saline with Tween-80): 107 % of control and 113 % of control | T/C (dose: 16.5 mg/kg/injection, schedule: Q04DX003 (ip), vehicle: saline with Tween-80): 95 % of control | T/C (dose: 20.0 mg/kg/injection, schedule: Q01DX009 (ip), vehicle: saline with Tween-80): 109 % of control | T/C (dose: 25.0 mg/kg/injection, schedule: Q01DX009 (ip), vehicle: saline with Tween-80): 93 % of control and 94 % of control | T/C (dose: 25.0 mg/kg/injection, schedule: Q04DX003 (ip), vehicle: saline with Tween-80): 100 % of control and 107 % of control | T/C (dose: 37.5 mg/kg/injection, schedule: Q04DX003 (ip), vehicle: saline with Tween-80): 100 % of control | T/C (dose: 40.0 mg/kg/injection, schedule: Q01DX009 (ip), vehicle: saline with Tween-80): 112 % of control | T/C [7]: 97 % of control | T/C (dose: 50.0 mg/kg/injection, schedule: Q04DX003 (ip), vehicle: saline with Tween-80): 110 % of control
